Data from patent publication US8536332B2, “Modulating signal transduction pathways with substituted pyridol [2,3-b] pyrazines” (Aeterna Zentaris GmbH, priority 2007, dated 2013).

## CCNC(=O)Nc1ccc2ncc(Nc3ccccc3OC)nc2n1 [Compound 153, 1-Ethyl-3-[3-(2-methoxy-phenylamino)-pyrido[2,3-b]pyrazin-6-yl]-urea]
  melting point: 225 °C

## COc1ccc(-c2ccc3ncc(NC(=O)Nc4ccc(C)cc4)nc3n2)cc1OC [Compound 578, 1-[6-(3,4-Dimethoxy-phenyl)-pyrido[2,3-b]pyrazin-3-yl]-3-p-tolyl-urea]
  melting point: 263 to 266 °C

## CCNC(=S)Nc1cnc2ccc(Nc3ccc(O)c(OC)c3)nc2n1 [Compound 203, 1-Ethyl-3-[6-(4-hydroxy-3-methoxy-phenylamino)-pyrido[2,3-b]pyrazin-3-yl]-thiourea]
  melting point: 166 °C

## CCNC(=O)Nc1cnc2ccc(-c3ccc(C)cc3)nc2n1 [Compound 178, 1-Ethyl-3-(6-p-tolyl-pyrido[2,3-b]pyrazin-3-yl)-urea]
  melting point: 227 to 228 °C

## CCNC(=O)Nc1cnc2ccc(N3CCC(O)CC3)nc2n1 [Compound 235, 1-Ethyl-3-[6-(4-hydroxy-piperidin-1-yl)-pyrido[2,3-b]pyrazin-3-yl]-urea]
  melting point: 249 to 251 °C

## O=C(NCCc1ccccc1)Nc1cnc2ccc(-c3cc(Cl)c(O)c(Cl)c3)nc2n1 [Compound 564, 1-[6-(3,5-Dichloro-4-hydroxy-phenyl)-pyrido[2,3-b]pyrazin-3-yl]-3-phenethyl-urea]
  melting point: 280 to 282 °C

## CCNc1ccc2ncc(Nc3cc(OC)c(OC)c(OC)c3)nc2n1 [Compound 733, N*6*-Ethyl-N*3*- (3,4,5-trimethoxy-phenyl)-pyrido[2,3-b]pyrazine-3,6-diamine]
  melting point: 110 °C

## CCNC(=O)Nc1ccc2ncc(-c3ccc(OS(C)(=O)=O)c(OC)c3)nc2n1 [Compound 43, Methanesulfonic acid 4-[6-(3-ethyl-ureido)-pyrido[2,3-b]pyrazin-3-yl]-2-methoxy-phenyl ester]
  melting point: 246 to 249 °C

## CCNC(=O)Nc1ccc2ncc(-c3cccc(OC(F)(F)F)c3)nc2n1 [Compound 118, 1-Ethyl-3-[3-(3-trifluoromethoxy-phenyl)-pyrido[2,3-b]pyrazin-6-yl]-urea]
  melting point: 239 to 240 °C

## CCNC(=O)Nc1cnc2ccc(-c3ccc(O)cc3)nc2n1 [Compound 182, 1-Ethyl-3-[6-(4-hydroxy-phenyl)-pyrido[2,3-b]pyrazin-3-yl]-urea]
  melting point: 277 to 279 °C

## COc1cc(Nc2cnc3ccc(NC(=S)NC(C)c4ccccc4)nc3n2)cc(OC)c1OC (centres unmarked) [Compound 711, 1-(1-Phenyl-ethyl)-3-[3-(3,4,5-trimethoxy-phenylamino)-pyrido[2,3-b]pyrazin-6-yl]-thiourea]
  melting point: 248 °C

## COc1cc(-c2ccc3ncc(NC(=O)Nc4cccnc4)nc3n2)ccc1O [Compound 611, 1-[6-(4-Hydroxy-3-methoxy-phenyl)-pyrido[2,3-b]pyrazin-3-yl]-3-pyridin-3-yl-urea]
  melting point: 245 to 248 °C

## CCNC(=O)Nc1ccc2ncc(-c3cc(C)cc(Br)c3)nc2n1 [Compound 94, 1-[3-(3-Bromo-5-methyl-phenyl)-pyrido[2,3-b]pyrazin-6-yl]-3-ethyl-urea]
  melting point: 270 to 274 °C

## CCNC(=O)Nc1ccc2ncc(Nc3ccc(O)cc3C)nc2n1 [Compound 394, 1-Ethyl-3-[3-(4-hydroxy-2-methyl-phenylamino)-pyrido[2,3-b]pyrazin-6-yl]-urea]
  melting point: 272 °C

## COc1cc(-c2ccc3ncc(NC(=O)NC(C)(C)CC(C)(C)C)nc3n2)ccc1O [Compound 613, 1-[6-(4-Hydroxy-3-methoxy-phenyl)-pyrido[2,3-b]pyrazin-3-yl]-3-(1,1,3,3-tetramethyl-butyl)-urea]
  melting point: 232 to 236 °C

## COc1cc(-c2ccc3ncc(NC(=S)NC(C)(C)C)nc3n2)ccc1O [Compound 652, 1-tert-Butyl-3-[6-(4-hydroxy-3-methoxy-phenyl)-pyrido[2,3-b]pyrazin-3-yl]-thiourea]
  melting point: 213 to 215 °C

## CCNC(=O)Nc1ccc2ncc(Nc3ccc(C)cc3C)nc2n1 [Compound 398, 1-[3-(2,4-Dimethyl-phenylamino)-pyrido[2,3-b]pyrazin-6-yl]-3-ethyl-urea]
  melting point: 210 °C

## Cc1cc(-c2ccc3ncc(NC(=O)Nc4ccccc4)nc3n2)cc(C)c1O [Compound 595, 1-[6-(4-Hydroxy-3,5-dimethyl-phenyl)-pyrido[2,3-b]pyrazin-3-yl]-3-phenyl-urea]
  melting point: 271 to 273 °C

## CCNC(=O)Nc1cnc2ccc(Nc3ccc(OC)c(Cl)c3)nc2n1 [Compound 201, 1-[6-(3-Chloro-4-methoxy-phenylamino)-pyrido[2,3-b]pyrazin-3-yl]-3-ethyl-urea]
  melting point: 260 °C

## CCNC(=S)Nc1ccc2ncc(N(C)c3cc(OC)c(OC)c(OC)c3)nc2n1 [Compound 706, 1-Ethyl-3-{3-[methyl-(3,4,5-trimethoxy-phenyl)-amino]-pyrido[2,3-b]pyrazin-6-yl}-thiourea]
  melting point: 222 °C

## CCNC(=O)Nc1ccc2ncc(-c3ccc(F)cc3OCC)nc2n1 [Compound 112, 1-[3-(2-Ethoxy-4-fluoro-phenyl)-pyrido [2,3-b]pyrazin-6-yl]-3-ethyl-urea]
  melting point: 229 to 231 °C

## COc1cc(Nc2cnc3ccc(NC(=S)NC4CC4)nc3n2)cc(OC)c1OC [Compound 707, 1-Cyclopropyl-3-[3-(3,4,5-trimethoxy-phenylamino)-pyrido[2,3-b]pyrazin-6-yl]-thiourea]
  melting point: 248 °C

## CCNC(=O)Nc1cnc2ccc(-c3cc(C(C)(C)C)c(O)c(C(C)(C)C)c3)nc2n1 [Compound 596, 1-[6-(3,5-Di-tert-butyl-4-hydroxy-phenyl)-pyrido[2,3-b]pyrazin-3-yl]-3-ethyl-urea]
  melting point: 263 °C

## CCNC(=O)Nc1ccc2ncc(-c3cccc(OCc4cc(OC)cc(OC)c4)c3)nc2n1 [Compound 121, 1-{3-[3-(3,5-Dimethoxy-benzyloxy)-phenyl]-pyrido[2,3-b]pyrazin-6-yl}-3-ethyl-urea]
  melting point: 212 to 217 °C

## COc1cc(Nc2cnc3ccc(NC(=S)NCc4ccc(C)cc4)nc3n2)cc(OC)c1OC [Compound 698, 1-(4-Methyl-benzyl)-3-[3-(3,4,5-trimethoxy-phenylamino)-pyrido[2,3-b]pyrazin-6-yl]-thiourea]
  melting point: 248 to 250 °C

## COc1cc(-c2ccc3ncc(NC(=O)NC4CCCCCCCCCCC4)nc3n2)ccc1O [Compound 628, 1-Cyclododecyl-3-[6-(4-hydroxy-3-methoxy-phenyl)-pyrido[2,3-b]pyrazin-3-yl]-urea]
  melting point: 233 to 235 °C

## CCNC(=O)Nc1ccc2ncc(Nc3ccc(OC)c(O)c3)nc2n1 [Compound 156, 1-Ethyl-3-[3-(3-hydroxy-4-methoxy-phenylamino)-pyrido[2,3-b]pyrazin-6-yl]-urea]
  melting point: 281 °C

## CCNC(=O)Nc1ccc2ncc(-c3cc(C)c(OC)c(C)c3)nc2n1 [Compound 80, 1-Ethyl-3-[3-(4-methoxy-3,5-dimethyl-phenyl)-pyrido[2,3-b]pyrazin-6-yl]-urea]
  melting point: 255.3 to 258.2 °C

## COc1cc(Nc2cnc3ccc(NC(=S)NCCN4CCCCC4)nc3n2)cc(OC)c1OC [Compound 700, 1-(2-Piperidin-1-yl-ethyl)-3-[3-(3,4,5-trimethoxy-phenylamino)-pyrido[2,3-b]pyrazin-6-yl]-thiourea]
  melting point: 206 °C

## COc1ccc(-c2ccc3ncc(NC(=O)Nc4ccc(F)cc4)nc3n2)cc1OC [Compound 572, 1-[6-(3,4-Dimethoxy-phenyl)-pyrido[2,3-b]pyrazin-3-yl]-3-(4-fluoro-phenyl)-urea]
  melting point: 269 to 271 °C

## COc1cc(Nc2cnc3ccc(NC(=S)NCc4ccccc4)nc3n2)cc(OC)c1OC [Compound 697, 1-Benzyl-3-[3-(3,4,5-trimethoxy-phenylamino)-pyrido[2,3-b]pyrazin-6-yl]-thiourea]
  melting point: 250 to 252 °C

## CCNC(=S)Nc1cnc2ccc(Nc3ccc(C)c(NS(C)(=O)=O)c3)nc2n1 [Compound 207, N-{5-[3-(3-Ethyl-thioureido)-pyrido[2,3-b]pyrazin-6-ylamino]-2-methyl-phenyl}-methanesulfonamide]
  melting point: 236 °C

## COc1cc(-c2ccc3ncc(NC(=S)NC4CCCCC4)nc3n2)ccc1O [Compound 524, 1-Cyclohexyl-3-[6-(4-hydroxy-3-methoxy-phenyl)-pyrido[2,3-b]pyrazin-3-yl]-thiourea]
  melting point: 253 to 254 °C

## COc1cc(Nc2cnc3ccc(NC(=S)NCc4ccco4)nc3n2)cc(OC)c1OC [Compound 708, 1-Furan-2-ylmethyl-3-[3-(3,4,5-trimethoxy-phenylamino)-pyrido[2,3-b]pyrazin-6-yl]-thiourea]
  melting point: 228 °C

## CCNC(=O)Nc1ccc2ncc(-c3cc(C)c(C)c(C)c3)nc2n1 [Compound 151, 1-Ethyl-3-[3-(3,4,5-trimethyl-phenyl)-pyrido[2,3-b]pyrazin-6-yl]-urea]
  melting point: 228 to 233 °C

## CCNC(=S)Nc1ccc2ncc(Nc3cccc(Cl)c3)nc2n1 [Compound 329, 1-[3-(3-Chloro-phenylamino)-pyrido[2,3-b]pyrazin-6-yl]-3-ethyl-thiourea]
  melting point: > 220 °C

## CCNC(=O)Nc1ccc2ncc(-c3ccc(C)c(F)c3)nc2n1 [Compound 83, 1-Ethyl-3-[3-(3-fluoro-4-methyl-phenyl)-pyrido[2,3-b]pyrazin-6-yl]-urea]
  melting point: 247.8 to 252.4 °C

## COc1ccc(-c2ccc3ncc(NC(=O)NC4CCCC4)nc3n2)cc1OC [Compound 576, 1-Cyclopentyl-3-[6-(3,4-dimethoxy-phenyl)-pyrido[2,3-b]pyrazin-3-yl]-urea]
  melting point: 261 to 264 °C

## COc1cc(Nc2cnc3ccc(NC(=S)NCC4CCCCC4)nc3n2)cc(OC)c1OC [Compound 696, 1-Cyclohexylmethyl-3-[3-(3,4,5-trimethoxy-phenylamino)-pyrido[2,3-b]pyrazin-6-yl]-thiourea]
  melting point: 347 °C

## CCNC(=O)Nc1ccc2ncc(-c3cc(F)c(F)c(F)c3)nc2n1 [Compound 81, 1-Ethyl-3-[3-(3,4,5-trifluoro-phenyl)-pyrido[2,3-b]pyrazin-6-yl]-urea]
  melting point: 305.4 to 307.2 °C

## COc1ccc(-c2ccc3ncc(NC(=O)NC(C)C)nc3n2)cc1OC [Compound 567, 1-[6-(3,4-Dimethoxy-phenyl)-pyrido[2,3-b]pyrazin-3-yl]-3-isopropyl-urea]
  melting point: 233 to 236 °C
